Measured values taken from patent US20260250312A1, “ANTIBACTERIAL COMPOUNDS ELIMINATING DORMANT BACTERIAL CELLS” (UNIVERSITÉ D'AIX-MARSEILLE, priority 2022, published 2026).
Several values for one entry are separate records, joined by “and”; a condition that tells them apart may be missing. Equal values may be shown once.

Experiments:
CHO-K1 cells = test: WST1 cytotoxicity test; format: cell-based, Chinese hamster; conditions: Cricetulus griseus, CHO-K1, 24 h, WST1, 24 hours at 37° C.; read-out: IC50 CHO
Description: Cytotoxicity: The test WST1 was used to measure the cytotoxic activity of the compounds of the invention. The test WST1 is a colorimetric test allowing to measure the viability and the degree of cell proliferation. It is based on cleavage of the colorless tetrazolium salts WST-1 (4—[3-(4-iodophenyl)-2-(4-nitrophenyl)-2H-5-tetrazolio]-1,3-benzene disulfonate) with mitochondrial dehydrogenases to the yellow-colored formazan derivative, which may be quantified by spectrophotometry at 420-480 nm. The WST1 test was performed on Chinese hamster ovary (CHO) cells. The CHO-K1 cells (ATCC, USA) were kept in culture in McCoy's 5A medium supplemented with 10% fetal calf serum, 2 mM of L-glutamine and a mixture of penicillin-streptomycin (100 U/ml: 10 μg/mL). The culture was incubated at 37° C. under an atmosphere enriched in CO2 (5%), and subcultured every two days. The cells were transferred into 96-well plates (25,000 cells/mL) in whole McCoy's 5A medium, and maintained for 24 hours at 37° C. under a humid atmosphere enriched in CO2 (5%). Increasing concentrations of tested compounds were added to the wells, each compound was tested in replicates and 8 growth controls containing the cells in the medium alone were included in each series of tests. After 24 hours at 37° C. (5% CO2), the culture medium was removed, the cells were rinsed in phosphate buffer (PBS) and 50 μL of PBS containing 10% of reagent WST1 were added to each well. After 20 minutes of incubation at 37° C., the results were read by spectrophotometry at 450 nm. The results are expressed in dose-response relationships, modeled by nonlinear regression analysis using the TableCurve software.
Cytotoxicity: The same WST1 test as described in Example 2 above was used.

[1] = tested on: Escherichia coli (ATCC28922); test: Microdilution MIC assay (CLSI-based), E. coli; format: cell-based; conditions: Escherichia coli, ATCC28922, 20 h, 20 hours incubation at 35-37° C., MHB; read-out: Minimum inhibitory concentration E. coli ATCC28922
Method: (§1) The antibacterial activity of compounds was measured using a standard microdilution assay based on the Clinical and Laboratory Standards Institute (CLSI) guidelines. This method was slightly modified. Indeed, assay volumes were increased to 200 μL to improve reproducibility. The chemical compounds to be tested were in the form of salts for biological testing.
(§2) Bacteria tested: Antibacterial activities of the compounds were tested on Staphylococcus aureus (ATCC25923), Enterococcus faecalis (ATCC29212), Escherichia coli ([…]) and Pseudomonas aeruginosa (ATCC27853).
(§3) Preparation of the Preculture: Mueller Hinton Agar plates were inoculated with frozen biological strain in order to obtain separate colonies and the plates were incubated during 24 h at 35-37° C. 3 colonies of similar aspect were picked out, resuspended in 5 mL of fresh Mueller Hinton broth 1× (MHB) and incubated with shaking (160 rpm) at 35-37° C. overnight.
(§4) 0.1 mL of bacteria in exponential phase were suspended in 9.9 mL of MHB (1:100 dilution). 0.1 mL of the 1:100 dilution were dispensed into the wells of microplates containing 0.1 ml of serial compounds dilutions to yield ca. 5×10^5 CFU/mL. In parallel, the stocks solutions of chemical compounds were first diluted in appropriate solvent to a final concentration of 5 mg/mL. 8 μL were dispended into the first wells of the microplates containing 0.1 ml of sterile broth and a 0.5 cascade dilution was performed in MHB from 0.2 mg/mL. One control was made for each strain tested. […] Tests were performed in triplicate.
(§5) Reading of the Results: After incubation, the filter was replaced with a transparent film, and an optical density reading was then taken in an iEMS plate spectrophotometer at 620 nm. Calculation of the minimum inhibitory concentration (MIC) was performed.

[2] = tested on: Staphylococcus aureus (ATCC25923); test: Microdilution MIC assay (CLSI-based), S. aureus; format: cell-based; conditions: Staphylococcus aureus, ATCC25923, 20 h, 20 hours incubation at 35-37° C., MHB; read-out: Minimum inhibitory concentration S. aureus ATCC25923
Method: as §1, §2, §3, §4, §5

[3] = tested on: Enterococcus faecalis (ATCC29212); test: Microdilution MIC assay (CLSI-based), E. faecalis; format: cell-based; conditions: Enterococcus faecalis, ATCC29212, 20 h, 20 hours incubation at 35-37° C., MHB; read-out: Minimum inhibitory concentration E. faecalis ATCC29212
Method: as §1, §2, §3, §4, §5

[4] = tested on: Pseudomonas aeruginosa (ATCC27853); test: Microdilution MIC assay (CLSI-based), P. aeruginosa; format: cell-based; conditions: Pseudomonas aeruginosa, ATCC27853, 20 h, 20 hours incubation at 35-37° C., MHB; read-out: Minimum inhibitory concentration P. aeruginosa ATCC27853
Method: as §1, §2, §3, §4, §5

Row | Compound | IC50 (CHO-K1 cells) | MIC [1] | MIC [2] | MIC [3] | MIC [4]
1 | COC(=O)[C@H](Cc1ccccc1)NC(=O)CC[C@@H](C)[C@H]1CCC2C3C(CC[C@@]21C)[C@@]1(C)CC[C@H](NCCN)C[C@H]1C[C@H]3O (stereo partly drawn) [Compound S015, methyl ((4R)-4-((3S,5S,7R,10S,13R,17R)-3-((2-aminoethyl)amino)-7-hydroxy-10,13-dimethylhexadecahydro-1H-cyclopenta[a]phenanthren-17-yl)pentanoyl)-L-phenylalaninate] | > 250 µM and > 149 µg/mL | 12.5 µM and 8 µg/mL | 12.5 µM and 8 µg/mL | 12.5 µM and 8 µg/mL | 50 µM and 32 µg/mL
2 | COC(=O)[C@@H](NC(=O)CC[C@@H](C)[C@H]1CC[C@H]2[C@@H]3[C@H](O)C[C@@H]4CC(NCCCN(CCCN)CCCN)CC[C@]4(C)[C@H]3CC[C@]12C)C(C)C (mixture of isomers) [Compound S003, methyl ((4R)-4-((3S,5S,7R,10S,13R,17R)-3-((3-(bis(3-aminopropyl)amino)propyl)amino)-7-hydroxy-10,13-dimethylhexadecahydro-1H-cyclopenta[a]phenanthren-17-yl)pentanoyl)valinate] | 165 µM and 111 µg/mL | 100 µM and 64 µg/mL | 6.25 µM and 4 µg/mL | 50 µM and 32 µg/mL | 100 µM and 64 µg/mL
3 | COC(=O)[C@@H](NC(=O)CC[C@@H](C)[C@H]1CCC2C3C(CC[C@@]21C)[C@@]1(C)CC[C@H](NCCNCCNCCNCCN)C[C@H]1C[C@H]3O)C(C)C (stereo partly drawn) [Compound S049, methyl ((4R)-4-((3S,5S,7R,10S,13R,17R)-3-((2-((2-((2-((2-aminoethyl)amino)ethyl)amino)ethyl)amino)ethyl)amino)-7-hydroxy-10,13-dimethylhexadecahydro-1H-cyclopenta[a]phenanthren-17-yl)pentanoyl)-L-valinate] | 94.9 µM and 64.2 µg/mL | 100 µM and 64 µg/mL | 50 µM and 32 µg/mL | 100 µM and 64 µg/mL | 100 µM and 64 µg/mL
4 | COC(=O)[C@H](NC(=O)CC[C@@H](C)[C@H]1CCC2C3C(CC[C@@]21C)[C@@]1(C)CC[C@H](NCCN)C[C@H]1C[C@H]3O)C(C)C (stereo partly drawn) [Compound S008, methyl ((4R)-4-((3S,5S,7R,10S,13R,17R)-3-((2-aminoethyl)amino)-7-hydroxy-10,13-dimethylhexadecahydro-1H-cyclopenta[a]phenanthren-17-yl)pentanoyl)-D-valinate] | 86 µM and 47.1 µg/mL | 25 µM and 16 µg/mL | 25 µM and 16 µg/mL | 25 µM and 16 µg/mL | 200 µM and 128 µg/mL
5 | COC(=O)[C@H](NC(=O)CC[C@@H](C)[C@H]1CCC2C3C(CC[C@@]21C)[C@@]1(C)CC[C@H](NCCCCCCCCCCN)C[C@H]1C[C@H]3O)C(C)C (stereo partly drawn) [Compound S009, methyl ((4R)-4-((3S,5S,7R,10S,13R,17R)-3-((10-aminodecyl)amino)-7-hydroxy-10,13-dimethylhexadecahydro-1H-cyclopenta[a]phenanthren-17-yl)pentanoyl)-D-valinate] | 20 µM and 13.2 µg/mL | 200 µM and 128 µg/mL | 25 µM and 16 µg/mL | 25 µM and 16 µg/mL | > 200 µM and > 128 µg/mL
6 | COC(=O)[C@H](Cc1ccccc1)NC(=O)CC[C@@H](C)[C@H]1CCC2C3C(CC[C@@]21C)[C@@]1(C)CC[C@H](NCCCN(CCCN)CCCN)C[C@H]1C[C@H]3O (stereo partly drawn) [Compound S037, methyl ((4R)-4-((3S,5S,7R,10S,13R,17R)-3-((3-(bis(3-aminopropyl)amino)propyl)amino)-7-hydroxy-10,13-dimethylhexadecahydro-1H-cyclopenta[a]phenanthren-17-yl)pentanoyl)-L-phenylalaninate] | 127 µM and 91.7 µg/mL | 6.25 µM and 4 µg/mL | 6.25 µM and 4 µg/mL | 6.25 µM and 4 µg/mL | 25 µM and 16 µg/mL
7 | COC(=O)[C@@H](NC(=O)CC[C@@H](C)[C@H]1CCC2C3C(CC[C@@]21C)[C@@]1(C)CC[C@H](NCCCCN)C[C@H]1C[C@H]3O)C(C)C (stereo partly drawn) [Compound S043, methyl ((4R)-4-((3S,5S,7R,10S,13R,17R)-3-((4-aminobutyl)amino)-7-hydroxy-10,13-dimethylhexadecahydro-1H-cyclopenta[a]phenanthren-17-yl)pentanoyl)-L-valinate] | 107 µM and 61.9 µg/mL | 50 µM and 32 µg/mL | 25 µM and 16 µg/mL | 25 µM and 16 µg/mL | 200 µM and 128 µg/mL
8 | COC(=O)[C@H](C)NC(=O)CC[C@@H](C)[C@H]1CCC2C3C(CC[C@@]21C)[C@@]1(C)CC[C@H](NCCCNCCCCNCCCN)C[C@H]1C[C@H]3O (stereo partly drawn) [Compound S038, methyl ((4R)-4-((3S,5S,7R,10S,13R,17R)-3-((3-((4-((3-aminopropyl)amino)butyl)amino)propyl)amino)-7-hydroxy-10,13-dimethylhexadecahydro-1H-cyclopenta[a]phenanthren-17-yl)pentanoyl)-L-alaninate] | 45 µM and 29.8 µg/mL | 6.25 µM and 4 µg/mL | 3.13 µM and 2 µg/mL | 6.25 µM and 4 µg/mL | 12.5 µM and 8 µg/mL
9 | COC(=O)[C@@H](Cc1ccccc1)NC(=O)CC[C@@H](C)[C@H]1CCC2C3C(CC[C@@]21C)[C@@]1(C)CC[C@H](NCCCNCCCN)C[C@H]1C[C@H]3O (stereo partly drawn) [Compound S028, methyl ((4R)-4-((3S,5S,7R,10S,13R,17R)-3-((3-((3-aminopropyl)amino)propyl)amino)-7-hydroxy-10,13-dimethylhexadecahydro-1H-cyclopenta[a]phenanthren-17-yl)pentanoyl)-D-phenylalaninate] | 54.6 µM and 36.4 µg/mL | 6.25 µM and 4 µg/mL | 12.5 µM and 8 µg/mL | 12.5 µM and 8 µg/mL | 50 µM and 32 µg/mL
10 | COC(=O)[C@H](CC(C)C)NC(=O)CC[C@@H](C)[C@H]1CCC2C3C(CC[C@@]21C)[C@@]1(C)CC[C@H](NCCCNCCCCNCCCN)C[C@H]1C[C@H]3O (stereo partly drawn) [Compound S036, methyl ((4R)-4-((3S,5S,7R,10S,13R,17R)-3-((3-((4-((3-aminopropyl)amino)butyl)amino)propyl)amino)-7-hydroxy-10,13-dimethylhexadecahydro-1H-cyclopenta[a]phenanthren-17-yl)pentanoyl)-L-leucinate] | 50.5 µM and 35.6 µg/mL | 6.25 µM and 4 µg/mL | 50 µM and 32 µg/mL | 6.25 µM and 4 µg/mL | 12.5 µM and 8 µg/mL
